For this assay, the target named is human TRPA1 (Homo sapiens (Human), UniProt O75762). Briefly: Measurement of TRPA1 antagonist activity (1): intracellular calcium increase. Format: cell-based. To be noted: 293T cells transfected with human TRPA1 expression plasmid; allylisothiocyanate 20 μM stimulation; intracellular calcium fluorescence; read-out: hTRPA1 IC50. An outline of the steps:
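Calcium-flux readout of TRPA1 block: compound given 10 min before 20 μM (final) allylisothiocyanate, fluorescence tracked 5 min. Cells were 293T transiently expressing human TRPA1, dye-loaded 1 hr in HBSS, 20 mM HEPES, pH 7.2. Inhibition scaled between agonist-only and buffer-only responses; IC50 by sigmoid fitting.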
(In general: Calcium assays in cells follow changes in intracellular calcium, usually with a dye or a luminescent sensor.)
human TRPA1, sequence (O75762 whole entry): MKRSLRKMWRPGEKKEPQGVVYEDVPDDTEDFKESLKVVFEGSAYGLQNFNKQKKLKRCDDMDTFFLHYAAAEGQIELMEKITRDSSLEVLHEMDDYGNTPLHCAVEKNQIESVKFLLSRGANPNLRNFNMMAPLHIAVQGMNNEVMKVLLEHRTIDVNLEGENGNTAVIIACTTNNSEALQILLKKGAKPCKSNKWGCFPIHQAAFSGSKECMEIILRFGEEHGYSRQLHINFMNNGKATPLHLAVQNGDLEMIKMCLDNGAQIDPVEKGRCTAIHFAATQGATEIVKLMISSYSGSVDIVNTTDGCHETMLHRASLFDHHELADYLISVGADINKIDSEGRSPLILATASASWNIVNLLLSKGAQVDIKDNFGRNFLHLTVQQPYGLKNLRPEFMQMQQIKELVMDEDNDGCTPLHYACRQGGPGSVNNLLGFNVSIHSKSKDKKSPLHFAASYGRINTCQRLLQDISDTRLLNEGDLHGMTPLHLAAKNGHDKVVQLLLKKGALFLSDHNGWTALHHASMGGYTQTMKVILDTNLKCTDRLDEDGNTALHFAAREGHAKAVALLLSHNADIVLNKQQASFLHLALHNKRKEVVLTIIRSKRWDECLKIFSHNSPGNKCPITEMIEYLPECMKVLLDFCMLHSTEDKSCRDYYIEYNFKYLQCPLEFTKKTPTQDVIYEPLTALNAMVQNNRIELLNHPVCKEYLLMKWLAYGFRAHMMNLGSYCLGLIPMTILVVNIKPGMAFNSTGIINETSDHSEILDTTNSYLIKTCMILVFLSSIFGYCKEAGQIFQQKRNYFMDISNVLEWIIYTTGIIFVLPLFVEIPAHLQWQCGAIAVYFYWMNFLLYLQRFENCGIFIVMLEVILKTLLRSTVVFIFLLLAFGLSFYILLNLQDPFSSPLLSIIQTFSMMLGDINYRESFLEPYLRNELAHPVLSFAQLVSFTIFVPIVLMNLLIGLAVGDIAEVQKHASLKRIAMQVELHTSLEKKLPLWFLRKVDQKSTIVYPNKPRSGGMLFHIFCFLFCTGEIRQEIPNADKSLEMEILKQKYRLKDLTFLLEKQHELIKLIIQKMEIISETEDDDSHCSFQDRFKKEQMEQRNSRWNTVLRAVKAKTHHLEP
Usually IC50 stands for the concentration that gives 50% inhibition. Turning to `O=C(NCc1cc(-c2cnc(C(F)(F)F)nc2)ccn1)[C@@H]1CCCN1S(=O)(=O)c1cc2ccccc2o1` [Example 200, (2S)-1-(benzofuran-2-ylsulfonyl)-N-[[4-[2-(trifluoromethyl)pyrimidin-5-yl]-2-pyridyl]methyl]pyrrolidine-2-carboxamide], the IC50 stood at 16 nM.
Under `O=C(NCc1cccc(-c2ccccc2O)n1)[C@@H]1CCCN1S(=O)(=O)c1cc2cc(F)ccc2o1` [Example 143, (2S)-1-(5-fluorobenzofuran-2-yl)sulfonyl-N-[[6-(2-hydroxyphenyl)-2-pyridyl]methyl]pyrrolidine-2-carboxamide] stands 260 nM; under `CN(C)c1cncc(COc2cccc(CNC(=O)[C@@H]3CCCN3S(=O)(=O)c3cc4cc(F)ccc4o3)c2)c1` [Example 23, (2S)-N-[[3-[[5-(dimethylamino)-3-pyridyl]methoxy]phenyl]-methyl]-1-(5-fluorobenzofuran-2-yl)sulfonyl-pyrrolidine-2-carboxamide], 110 nM; under `O=C(NCc1cccc(SCc2ccc(C(F)(F)F)cc2)c1)[C@@H]1CCCN1S(=O)(=O)c1cc2ccccc2o1` [Example 315, (2S)-1-(benzofuran-2-ylsulfonyl)-N-[[3-[[4-(trifluoromethyl)phenyl]methylsulfanyl]phenyl]methyl]pyrrolidine-2-carboxamide], 22 nM.
Under `O=C(NCc1cccc(-c2cnc(C(F)(F)F)cn2)c1)[C@@H]1CCCN1S(=O)(=O)c1cc2ccccc2o1` [Example 196, (2S)-1-(benzofuran-2-ylsulfonyl)-N-[[3-[5-(trifluoromethyl)pyrazin-2-yl]phenyl]methyl]-pyrrolidine-2-carboxamide] stands 2.9 nM.
Under `O=C(NCc1ccnc(-c2ccc(C(F)(F)F)cc2)c1)[C@@H]1C=CCN1S(=O)(=O)c1cc2cc(F)ccc2o1` [Example 98, (2S)-1-(5-fluorobenzofuran-2-yl)sulfonyl-N-[[2-[4-(trifluoromethyl)phenyl]-4-pyridyl]methyl]-2,5-dihydropyrrole-2-carboxamide] stands 0.76 nM; under `C[C@H](NS(=O)(=O)c1cc2cc(F)ccc2o1)C(=O)NCc1cc(-c2ccc(C(F)(F)F)cn2)ccn1` [Example 240, (2S)-2-[(5-fluorobenzofuran-2-yl)sulfonylamino]-N-[[4-[5-(trifluoromethyl)-2-pyridyl]-2-pyridyl]methyl]propanamide], 14 nM; under `O=C(NCc1ccnc(-c2ccc(C(F)(F)F)cc2)c1)[C@@H]1[C@@H](O)CCN1S(=O)(=O)c1cc2cc(F)ccc2o1` [Example 95, (2S,3S)-1-(5-fluorobenzofuran-2-yl)sulfonyl-3-hydroxy-N-[[2-[4-(trifluoromethyl)phenyl]-4-pyridyl]methyl]pyrrolidine-2-carboxamide], 5.4 nM.
For `N#Cc1ccc(-c2ccnc(CNC(=O)[C@@H]3CCCN3S(=O)(=O)c3cc4ccccc4o3)c2)nc1` [Example 152, (2S)-1-(benzofuran-2-ylsulfonyl)-N-[[4-(5-cyano-2-pyridyl)-2-pyridyl]methyl]pyrrolidine-2-carboxamide], the IC50 turned out to be 160 nM.
Under `O=C(NCc1ccc(Oc2cccc(C(F)(F)F)c2)cc1)[C@@H]1CCCN1S(=O)(=O)c1cc2cnccc2o1` [Example 268, (2S)-1-furo[3,2-c]pyridin-2-ylsulfonyl-N-[[4-[3-(trifluoromethyl)phenoxy]-phenyl]methyl]pyrrolidine-2-carboxamide] stands 29 nM; under `O=C(NCc1cccc(Cl)c1)[C@@H]1CCCN1S(=O)(=O)c1cc2ccccc2o1` [Example 60, (2S)-1-(benzofuran-2-ylsulfonyl)-N-[(3-chlorophenyl)methyl]pyrrolidine-2-carboxamide], 200 nM.
Next, `O=C(NCc1ccnc(-c2ccc(C(F)(F)F)nc2)c1)[C@@H]1CCCN1S(=O)(=O)c1cc2ccccc2o1` [Example 124, (2S)-1-(benzofuran-2-ylsulfonyl)-N-[[2-[6-(trifluoromethyl)-3-pyridyl]-4-pyridyl]methyl]pyrrolidine-2-carboxamide]: 3.4 nM; `CNc1ccccc1-c1cc(CNC(=O)[C@@H]2CCCN2S(=O)(=O)c2cc3ccccc3o2)ccn1` [Example 292, (2S)-1-(benzofuran-2-ylsulfonyl)-N-[[2-[2-(methylamino)phenyl]-4-pyridyl]methyl]pyrrolidine-2-carboxamide]: 580 nM; `C[C@H](NS(=O)(=O)c1cc2cc(F)ccc2o1)C(=O)NCc1cccc(-c2cnc(C(F)(F)F)nc2)c1` [Example 233, (2S)-2-[(5-fluorobenzofuran-2-yl)sulfonylamino]-N-[[3-[2-(trifluoromethyl)pyrimidin-5-yl]phenyl]methyl]propanamide]: 10 nM.
On to `CN(C)c1nc(CNC(=O)[C@@H]2CCCN2S(=O)(=O)c2cc3ccccc3o2)cc(-c2ccc(C(F)(F)F)cc2)n1` [Example 312, (2S)-1-(benzofuran-2-ylsulfonyl)-N-[[2-(dimethylamino)-6-[4-(trifluoromethyl)phenyl]pyrimidin-4-yl]methyl]pyrrolidine-2-carboxamide], for which the 50% inhibitory concentration (IC50) turned out to be 5.3 nM.
Next, `O=C(NCc1ccnc(-c2cc(C(F)(F)F)n[nH]2)c1)[C@@H]1CCCN1S(=O)(=O)c1cc2ccccc2o1` [Example 294, (2S)-1-(benzofuran-2-ylsulfonyl)-N-[[2-[3-(trifluoromethyl)-1H-pyrazol-5-yl]-4-pyridyl]methyl]pyrrolidine-2-carboxamide]: 170 nM.
For `O=C(NCc1cccc(-c2cnc(C(F)(F)F)nc2)c1)[C@@H]1CCCN1S(=O)(=O)c1cc2ccccc2o1` [Example 195, (2S)-1-(benzofuran-2-ylsulfonyl)-N-[[3-[2-(trifluoromethyl)pyrimidin-5-yl]phenyl]-methyl]pyrrolidine-2-carboxamide], the concentration for half-maximal inhibition (IC50) turned out to be 2.5 nM.
Under “(2S)-1-(benzofuran-2-ylsulfonyl)-N-[[3-[6-(trifluoromethyl)-3-pyridyl]phenyl]methyl]pyrrolidine-2-carboxamide [Example 79]” stands 1.6 nM; under `O=C(NCc1cccc(OC(F)(F)F)c1)[C@@H]1CCCN1S(=O)(=O)c1cc2cc(F)ccc2o1` [Example 65, (2S)-1-(5-fluorobenzofuran-2-yl)sulfonyl-N-[[3-(trifluoromethoxy)phenyl]methyl]-pyrrolidine-2-carboxamide], 15 nM.
Turning to `C[C@H](NS(=O)(=O)c1cc2cc(F)ccc2o1)C(=O)NCc1cc(-c2ccc(C(F)(F)F)cn2)c(O)cn1` [Example 255, (2S)-2-[(5-fluorobenzofuran-2-yl)sulfonylamino]-N-[[5-hydroxy-4-[5-(trifluoromethyl)-2-pyridyl]-2-pyridyl]methyl]propanamide], the concentration for half-maximal inhibition (IC50) was 17 nM.
For the molecule `O=C(NC1(c2cc(Cl)cc(-c3ccc(C(F)(F)F)nc3)c2)CC1)[C@@H]1CCCN1S(=O)(=O)c1cc2ccccc2o1` [Example 216, (2S)-1-(benzofuran-2-ylsulfonyl)-N-[1-[3-chloro-5-[6-(trifluoromethyl)-3-pyridyl]phenyl]cyclopropyl]-pyrrolidine-2-carboxamide], the IC50 is 13 nM.
Next, `O=C(NCc1cc(F)cc(OCc2ccccc2)c1)[C@@H]1CCCN1S(=O)(=O)c1cc2cc(F)ccc2o1` [Example 34, (2S)-N-[(3-benzyloxy-5-fluoro-phenyl)methyl]-1-(5-fluorobenzofuran-2-yl)sulfonyl-pyrrolidine-2-carboxamide]: 1.6 nM; `O=C(NCc1cncc(-c2ccc(C(F)(F)F)nc2)c1)[C@@H]1CCCN1S(=O)(=O)c1cc2ccccc2o1` [Example 86, (2S)-1-(benzofuran-2-ylsulfonyl)-N-[[5-[6-(trifluoromethyl)-3-pyridyl]-3-pyridyl]methyl]pyrrolidine-2-carboxamide]: 20 nM.
Under `O=C(NCc1cc(-c2ccc(C(F)(F)F)cn2)ccn1)[C@@H]1[C@@H](O)CCN1S(=O)(=O)c1cc2ccccc2o1` [Example 227, (2S,3S)-1-(benzofuran-2-ylsulfonyl)-3-hydroxy-N-[[4-[5-(trifluoromethyl)-2-pyridyl]-2-pyridyl]methyl]pyrrolidine-2-carboxamide] stands 42 nM.
Next, `O=C(NCc1cccc(OCc2ccc(C(F)(F)F)cc2)c1)[C@@H]1CCCN1S(=O)(=O)c1cc2ccccc2o1` [Example 38, (2S)-1-(benzofuran-2-ylsulfonyl)-N-[[3-[[4-(trifluoromethyl)phenyl]methoxy]-phenyl]methyl]pyrrolidine-2-carboxamide]: 9.1 nM.
As to `C[C@H](NS(=O)(=O)c1cc2cc(F)ccc2o1)C(=O)NCc1cccc(-c2cnc(C(F)(F)F)cn2)c1` [Example 234, (2S)-2-[(5-fluorobenzofuran-2-yl)sulfonylamino]-N-[[3-[5-(trifluoromethyl)pyrazin-2-yl]phenyl]methyl]propanamide], the IC50 came out at 34 nM.
Under `O=C(NCc1ccc(F)c(-c2ccc(C(F)(F)F)cc2O)c1)[C@@H]1CCCN1S(=O)(=O)c1cc2ccccc2o1` [Example 308] stands 360 nM; under `COc1cc(CNC(=O)[C@@H]2CCCN2S(=O)(=O)c2cc3ccccc3o2)cc(-c2ccc(C(F)(F)F)nc2)c1` [Example 310, (2S)-1-(benzofuran-2-ylsulfonyl)-N-[[3-methoxy-5-[6-(trifluoromethyl)-3-pyridyl]phenyl]methyl]pyrrolidine-2-carboxamide], 2.5 nM.
Under `O=C(NCc1cccc(OCc2ccco2)c1)[C@@H]1CCCN1S(=O)(=O)c1cc2ccccc2o1` [Example 4, (2S)-1-(benzofuran-2-ylsulfonyl)-N-[[3-(2-furylmethoxy)phenyl]methyl]pyrrolidine-2-carboxamide] stands 23 nM; under `N#Cc1cccc(-c2ccc(CNC(=O)[C@@H]3CCCN3S(=O)(=O)c3cc4ccccc4o3)cc2)c1` [Example 171, (2S)-1-(benzofuran-2-ylsulfonyl)-N-[[4-(3-cyanophenyl)phenyl]methyl]-pyrrolidine-2-carboxamide], 510 nM.

For the origin of these results see US10626112B2, “Heterocyclic sulfonamide derivative and medicine comprising same” (EA PHARMA CO., LTD., priority 2014, dated 2020).
